We go through 20 molecules from patent US20240101548A1, “HYDROXAMATE COMPOUND, PREPARATION METHOD THEREFOR AND APPLICATION THEREOF” (SHENZHEN CHIPSCREEN BIOSCIENCES CO., LTD., priority 2020, published 2024).

Assay [1] has as its system IL-2-induced JAK1/JAK3 signal pathway. Put plainly: IL-2-induced proliferation of KHYG-1 cells (JAK1/JAK3 signal). Format: cell-based, human. Particulars: Homo sapiens; KHYG-1 cell proliferation, IL-2 10 ng/mL, 72 hours; read-out: Inhibition activity IC50 on IL-2-induced JAK1/JAK3 signal pathway. A digest of the protocol:
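Controls were wells lacking both compound and cytokine (0%) and compound-free IL-2 wells (100%). C50 was calculated from inhibition rates across doses.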

In assay [2] the test system is EPO-induced JAK2 signal pathway. As to the kind of experiment: EPO-induced proliferation of UT-7 cells (JAK2 signal). Format: cell-based, human. Particulars: Homo sapiens, UT7; UT-7 cell proliferation, EPO 10 ng/mL, 72 hours; read-out: Inhibition activity IC50 on EPO-induced JAK2 signal pathway. A digest of the protocol: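 […] was derived from inhibition rates across doses, scaled between wells lacking compound and cytokine (0) and EPO without compound (100), using alamarBlue fluorescence at Ex530/Em590. Compound (final 0-10000 nM) and 10 ng/mL EPO were given to UT-7 cells at 15000 per well for 72 h at 37° C.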

pIC50: −log10 of the molar value.

With `CONC(=O)c1cnc(NC(=O)C2CC2)cc1Nc1ccccc1P(C)(C)=O` [Example 73, 6-(cyclopropylcarboxamido)-4-((2-(dimethylphosphoryl)phenyl)amino)-N-methoxy nicotinamide], the pIC50 in assay [1] and in assay [2] was less than 5.00 in each case.

Take `CONC(=O)c1cnc(NC(=O)C2CC2)cc1Nc1cccc(-c2cnn(C)c2)c1N(C)S(C)(=O)=O` [Example 87, 6-(cyclopropylcarboxamido)-N-methoxy-4-((3-(1-methyl-1H-pyrazol-4-yl)-2-(N-methylmethanesulfonamido)phenyl)amino)nicotinamide]: the pIC50 in assay [1] and in assay [2] was less than 5.00 each time.

`CONC(=O)c1nnc(NC(=O)C2CC2)cc1Nc1cccc(-c2ccn(C)n2)c1OC` [Example 53, 6-(cyclopropylcarboxamido)-N-methoxy-4-((2-methoxy-3-(1-methyl-1H-pyrazol-3-yl)phenyl)amino)pyridazine-3-carboxamide]: the pIC50 in assay [1] and in assay [2] was less than 5.00 throughout.

On to `CCONC(=O)c1cnc(Nc2ncccn2)cc1Nc1cc(F)c(C2CC2)cc1N(C)S(C)(=O)=O` [Example 169, 4-((4-cyclopropyl-5-fluoro-2-(N-methylmethanesulfonamido)phenyl)amino)-N-ethoxy-6-(pyrimidin-2-ylamino)nicotinamide], for which the pIC50 in assay [1] and in assay [2] was less than 5.00 each time.

With `CONC(=O)c1cnc(Nc2ccc(F)cc2)cc1Nc1ccccc1N(C)S(C)(=O)=O` [Example 104, 6-((4-fluorophenyl)amino)-N-methoxy-4-((2-(N-methylmethanesulfonamido)phenyl)amino)nicotinamide], the pIC50 in assay [1] and in assay [2] was less than 5.00 in each case.

Take `CCONC(=O)c1cnc(Nc2ccc(CO)cn2)cc1Nc1ccc(C2CC2)cc1N(C)S(C)(=O)=O` [Example 122, 4-((4-cyclopropyl-2-(N-methylmethanesulfonamido)phenyl)amino)-N-ethoxy-6-((5-(hydroxymethyl)pyridin-2-yl)amino)nicotinamide]: the pIC50 in assay [1] and in assay [2] was less than 5.00 in each case.

For the molecule `CONC(=O)c1cnc(NC(=O)C2CC2)cc1Nc1ccc2cnn(C)c2c1` [Example 28, 6-(cyclopropylcarboxamido)-N-methoxy-4-((1-methyl-1H-indazol-6-yl)amino)nicotinamide], the pIC50 in assay [1] and in assay [2] was less than 5.00 each time.

With `CCONC(=O)c1cnc(Nc2ccnn2C)cc1Nc1ccc(C2CC2)cc1N(C)S(C)(=O)=O` [Example 161, 4-((4-cyclopropyl-2-(N-methylmethanesulfonamido)phenyl)amino)-N-ethoxy-6-((1-methyl-1H-pyrazol-5-yl)amino)nicotinamide], the pIC50 in assay [1] and in assay [2] was less than 5.00 throughout.

On to `CONC(=O)c1cnc(Nc2cccnc2OC)cc1Nc1cccc(Cl)c1N(C)S(C)(=O)=O` [Example 78, 4-((3-chloro-2-(N-methylmethanesulfonamido)phenyl)amino)-N-methoxy-6-((2-methoxypyridin-3-yl)amino)nicotinamide], for which the pIC50 in assay [1] and in assay [2] was less than 5.00 each time.

Take `CONC(=O)c1cnc(NC(=O)C2CC2)cc1Nc1cccc(F)c1N(C)S(C)(=O)=O` [Example 32, 6-(cyclopropylcarboxamido)-4-((3-fluoro-2-(N-methylmethanesulfonamido)phenyl)amino)-N-methoxy nicotinamide]: the pIC50 in assay [1] and in assay [2] was less than 5.00 in each case.

Turning to `CONC(=O)c1cnc(NC(=O)C2CC2)cc1Nc1ccc(OC)cc1N(C)S(C)(=O)=O` [Example 6, 6-(cyclopropylcarboxamido)-N-methoxy-4-((4-methoxy-2-(N-methylmethanesulfonamido)phenyl)amino)nicotinamide], the pIC50 in assay [1] and in assay [2] was less than 5.00 in each case.

As for `CONC(=O)c1cnc(Nc2cccc(F)n2)cc1Nc1ccccc1P(C)(C)=O` [Example 74, 4-((2-(dimethylphosphoryl)phenyl)amino)-6-((6-fluoropyridin-2-yl)amino)-N-methoxy nicotinamide], the pIC50 in assay [1] and in assay [2] was less than 5.00 in each case.

With `CCONC(=O)c1cnc(Nc2ccnn2C)cc1Nc1ccc(N2CCOCC2)cc1N(C)S(C)(=O)=O` [Example 135], the pIC50 in assay [1] and in assay [2] was less than 5.00 in each case.

Consider `CONC(=O)c1cnc(NC(=O)[C@H]2CC2(C)C)cc1Nc1ccccc1N(C)S(C)(=O)=O` [Example 105, (S)-6-(2,2-dimethylcyclopropyl-1-carboxamido)-N-methoxy-4-((2-(N-methylmethanesulfonamido)phenyl)amino)nicotinamide], for which the pIC50 in assay [1] and in assay [2] was less than 5.00 throughout.

In the case of `CONC(=O)c1nnc(NC(=O)C2CC2)cc1Nc1cccc(-c2ncn(C)n2)c1OC` [Example 52, 6-(cyclopropylcarboxamido)-N-methoxy-4-((2-methoxy-3-(1-methyl-1H-1,2,4-triazol-3-yl)phenyl)amino)pyridazine-3-carboxamide], the pIC50 in assay [1] and in assay [2] was less than 5.00 each time.

Consider `CONC(=O)c1cnc(Nc2ccc(F)cn2)cc1Nc1cccc(-c2cnn(C)c2)c1C#N` [Example 49, 4-((2-cyano-3-(1-methyl-1H-pyrazol-4-yl)phenyl)amino)-6-((5-fluoropyridin-2-yl)amino)-N-methoxy nicotinamide], for which the pIC50 in assay [1] and in assay [2] was less than 5.00 in each case.

For `CCONC(=O)c1cnc(Nc2cc(C)nc(C)n2)cc1Nc1cc(C)c(C2CC2)cc1N(C)S(C)(=O)=O` [Example 121], the pIC50 in assay [1] and in assay [2] was less than 5.00 throughout.

In the case of `CONC(=O)c1cnc(Nc2ccc(F)cc2)cc1Nc1ccc(C2CC2)cc1N(C)S(C)(=O)=O` [Example 15, 4-((4-cyclopropyl-2-(N-methylmethanesulfonamido)phenyl)amino)-6-((4-fluorophenyl)amino)-N-methoxy nicotinamide], the pIC50 in assay [1] and in assay [2] was less than 5.00 in each case.

Take `CCONC(=O)c1cnc(Nc2nc(C)cc(C)n2)cc1Nc1ccc(C2CC2)cc1N(C)S(C)(=O)=O` [Example 123, 4-((4-cyclopropyl-2-(N-methylmethanesulfonamido)phenyl)amino)-6-((4,6-dimethylpyrimidin-2-yl)amino)-N-ethoxy nicotinamide]: the pIC50 in assay [1] and in assay [2] was less than 5.00 each time.

For the molecule `CONC(=O)c1cnc(Nc2cccc(F)n2)cc1Nc1cccc(-c2ccn(C)n2)c1OC` [Example 30, 6-((6-fluoropyridin-2-yl)amino)-N-methoxy-4-((2-methoxy-3-(1-methyl-1H-pyrazol-3-yl)phenyl)amino)nicotinamide], the pIC50 in assay [1] and in assay [2] was less than 5.00 in each case.
